According to patent US11560582B2, “Fusion moieties and microbial hosts for protein production” (priority 2018, dated 2023):

Columns and labels:
Assay type in all cases: cell-based, Aliivibrio wodanis
[1] = test system: A. wodanis strain 01/09/401 (11); assay: Antibiotic susceptibility testing on LB plates; details: 12° C. for 2 days
Protocol: (§1) Antibiotic susceptibility testing was done by streaking A. wodanis cells onto LB plates supplemented with 2.5% NaCl and one of the following antibiotics: Chloramphenicol (2 μg/mL, Tetracycline (10 μg/mL), Carbenicillin (100 or 200 μg/mL) or Kanamycin (50 or 100 μg/mL). A. wodanis was regarded as susceptible (score=0) if no growth was detected, as intermediate susceptible (score=0.5) if poor growth was detected, or as resistant (score=1) if good growth was detected. The tested concentrations of antibiotics were similar to the recommended working concentrations for E. coli, except Chloramphenicol that was tested at 2 μg/mL (instead of 25 μg/mL). If the test scored as “resistant”, then the test was redone using 2× of the recommended concentration. All A. wodanis strains were streaked onto same agar plate and grown at 12° C. for 2 days.

[2] = test system: A. wodanis strain 02/09/382 (8); assay: Antibiotic susceptibility testing on LB plates; details: 12° C. for 2 days
Protocol: as §1

[3] = test system: A. wodanis strain 02/09/569 (7); assay: Antibiotic susceptibility testing on LB plates; details: 12° C. for 2 days
Protocol: as §1

[4] = test system: A. wodanis strain 03/09/160 (37); assay: Antibiotic susceptibility testing on LB plates; details: 12° C. for 2 days
Protocol: as §1

[5] = test system: A. wodanis strain 04/60/17347 (35); assay: Antibiotic susceptibility testing on LB plates; details: 12° C. for 2 days
Protocol: as §1

[6] = test system: A. wodanis strain 06/09/170 (27); assay: Antibiotic susceptibility testing on LB plates; details: 12° C. for 2 days
Protocol: as §1

[7] = test system: A. wodanis strain 06/09/178 (29); assay: Antibiotic susceptibility testing on LB plates; details: 12° C. for 2 days
Protocol: as §1

[8] = test system: A. wodanis strain 88/09/441 (12) (T); assay: Antibiotic susceptibility testing on LB plates; details: 12° C. for 2 days
Protocol: as §1

[9] = test system: A. wodanis strain 89/09/5532 (1); assay: Antibiotic susceptibility testing on LB plates; details: 12° C. for 2 days
Protocol: as §1

[10] = test system: A. wodanis strain 90/09/325 (5); assay: Antibiotic susceptibility testing on LB plates; details: 12° C. for 2 days
Protocol: as §1

[11] = test system: A. wodanis strain K7F1 150913; details: 12° C. for 2 days
Protocol: as §1

A. wodanis strains = assay: Antibiotic resistance test, summary for all strains; details: the twelve strains used in this study
Protocol: Next, we tested for resistance to antibiotics, four of which are commonly used in biotechnological applications, namely carbenicillin, kanamycin, tetracycline and chloramphenicol.
as §1

## CC1(C)S[C@@H]2[C@H](NC(=O)C(C(=O)O)c3ccccc3)C(=O)N2[C@H]1C(=O)O (some centres unmarked) [CAR, Carbenicillin]
[1]; 100 μg/mL
  Antibiotics resistance CAR 100 μg/mL: 1
[1]; 200 μg/mL
  Antibiotics resistance CAR 200 μg/mL: 1
[2]; 100 μg/mL
  Antibiotics resistance CAR 100 μg/mL: 1
[2]; 200 μg/mL
  Antibiotics resistance CAR 200 μg/mL: 1
[3]; 100 μg/mL
  Antibiotics resistance CAR 100 μg/mL: 1
[3]; 200 μg/mL
  Antibiotics resistance CAR 200 μg/mL: 1
[4]; 100 μg/mL
  Antibiotics resistance CAR 100 μg/mL: 1
[4]; 200 μg/mL
  Antibiotics resistance CAR 200 μg/mL: 1
[5]; 100 μg/mL
  Antibiotics resistance CAR 100 μg/mL: 1
[5]; 200 μg/mL
  Antibiotics resistance CAR 200 μg/mL: 1
[6]; 100 μg/mL
  Antibiotics resistance CAR 100 μg/mL: 1
[6]; 200 μg/mL
  Antibiotics resistance CAR 200 μg/mL: 1
[7]; 100 μg/mL
  Antibiotics resistance CAR 100 μg/mL: 1
[7]; 200 μg/mL
  Antibiotics resistance CAR 200 μg/mL: 1
[8]; 100 μg/mL
  Antibiotics resistance CAR 100 μg/mL: 0.5
[8]; 200 μg/mL
  Antibiotics resistance CAR 200 μg/mL: 0.5
[9]; 100 μg/mL
  Antibiotics resistance CAR 100 μg/mL: 1
[9]; 200 μg/mL
  Antibiotics resistance CAR 200 μg/mL: 1
[10]; 100 μg/mL
  Antibiotics resistance CAR 100 μg/mL: 1
[10]; 200 μg/mL
  Antibiotics resistance CAR 200 μg/mL: 1
[11]; 100 μg/mL
  Antibiotics resistance CAR 100 μg/mL: 1
[11]; 200 μg/mL
  Antibiotics resistance CAR 200 μg/mL: 1
A. wodanis strains
  sensitivity / resistance to antibiotics: resistance

## O=C(N[C@H](CO)[C@H](O)c1ccc([N+](=O)[O-])cc1)C(Cl)Cl [CHL, chloramphenicol]
[1]; 2 μg/mL
  Antibiotics resistance CHL 2 μg/mL: 0
[2]; 2 μg/mL
  Antibiotics resistance CHL 2 μg/mL: 0
[3]; 2 μg/mL
  Antibiotics resistance CHL 2 μg/mL: 0
[4]; 2 μg/mL
  Antibiotics resistance CHL 2 μg/mL: 0
[5]; 2 μg/mL
  Antibiotics resistance CHL 2 μg/mL: 0
[6]; 2 μg/mL
  Antibiotics resistance CHL 2 μg/mL: 0
[7]; 2 μg/mL
  Antibiotics resistance CHL 2 μg/mL: 0
[8]; 2 μg/mL
  Antibiotics resistance CHL 2 μg/mL: 0
[9]; 2 μg/mL
  Antibiotics resistance CHL 2 μg/mL: 0
[10]; 2 μg/mL
  Antibiotics resistance CHL 2 μg/mL: 0
[11]; 2 μg/mL
  Antibiotics resistance CHL 2 μg/mL: 0
A. wodanis strains
  sensitivity / resistance to antibiotics: sensitive

## NC[C@H]1O[C@H](O[C@H]2[C@H](O)[C@@H](O[C@H]3O[C@H](CO)[C@@H](O)[C@H](N)[C@H]3O)[C@H](N)C[C@@H]2N)[C@H](O)[C@@H](O)[C@@H]1O [KAN, Kanamycin]
[1]; 50 μg/mL
  Antibiotics resistance KAN 50 μg/mL: 1
[1]; 100 μg/mL
  Antibiotics resistance KAN 100 μg/mL: 0.5
[2]; 50 μg/mL
  Antibiotics resistance KAN 50 μg/mL: 1
[2]; 100 μg/mL
  Antibiotics resistance KAN 100 μg/mL: 0.5
[3]; 50 μg/mL
  Antibiotics resistance KAN 50 μg/mL: 1
[3]; 100 μg/mL
  Antibiotics resistance KAN 100 μg/mL: 0.5
[4]; 50 μg/mL
  Antibiotics resistance KAN 50 μg/mL: 1
[4]; 100 μg/mL
  Antibiotics resistance KAN 100 μg/mL: 0.5
[5]; 50 μg/mL
  Antibiotics resistance KAN 50 μg/mL: 1
[5]; 100 μg/mL
  Antibiotics resistance KAN 100 μg/mL: 0.5
[6]; 50 μg/mL
  Antibiotics resistance KAN 50 μg/mL: 0.5
[6]; 100 μg/mL
  Antibiotics resistance KAN 100 μg/mL: 0.5
[7]; 50 μg/mL
  Antibiotics resistance KAN 50 μg/mL: 1
[7]; 100 μg/mL
  Antibiotics resistance KAN 100 μg/mL: 0.5
[8]; 50 μg/mL
  Antibiotics resistance KAN 50 μg/mL: 1
[8]; 100 μg/mL
  Antibiotics resistance KAN 100 μg/mL: 0.5
[9]; 50 μg/mL
  Antibiotics resistance KAN 50 μg/mL: 1
[9]; 100 μg/mL
  Antibiotics resistance KAN 100 μg/mL: 0.5
[10]; 50 μg/mL
  Antibiotics resistance KAN 50 μg/mL: 1
[10]; 100 μg/mL
  Antibiotics resistance KAN 100 μg/mL: 0.5
[11]; 50 μg/mL
  Antibiotics resistance KAN 50 μg/mL: 1
[11]; 100 μg/mL
  Antibiotics resistance KAN 100 μg/mL: 0.5

## CN(C)[C@@H]1C(O)=C(C(N)=O)C(=O)[C@@]2(O)C(O)=C3C(=O)c4c(O)cccc4[C@@](C)(O)[C@H]3C[C@@H]12 [TET, Tetracycline]
[1]; 10 μg/mL
  Antibiotics resistance TET 10 μg/mL: 0
[2]; 10 μg/mL
  Antibiotics resistance TET 10 μg/mL: 0
[3]; 10 μg/mL
  Antibiotics resistance TET 10 μg/mL: 0
[4]; 10 μg/mL
  Antibiotics resistance TET 10 μg/mL: 0
[5]; 10 μg/mL
  Antibiotics resistance TET 10 μg/mL: 0
[6]; 10 μg/mL
  Antibiotics resistance TET 10 μg/mL: 0
[7]; 10 μg/mL
  Antibiotics resistance TET 10 μg/mL: 0
[8]; 10 μg/mL
  Antibiotics resistance TET 10 μg/mL: 0
[9]; 10 μg/mL
  Antibiotics resistance TET 10 μg/mL: 0
[10]; 10 μg/mL
  Antibiotics resistance TET 10 μg/mL: 0
[11]; 10 μg/mL
  Antibiotics resistance TET 10 μg/mL: 0
